Patent US6855707B2, “Method for the treatment of lipid and glucose metabolism disorders” (Pliva D.D., priority 1996, dated 2005)

How the values were obtained:
[1] = test system: C57BL/6 ob/ob mice; test: Example 2: two-week treatment of C57BL/6 ob/ob mice at 1 HALO; assay type: in vivo; details: for reduction of plasma free fatty acid level / reduction of plasma glucose concentration / reduction of plasma insulin level / reduction of plasma triglyceride level: mouse, in vivo; for Food Consumption / Plasma FFA / Plasma Glucose / Plasma Insulin / Plasma TG / Whole Body Lipid-Glycerol (% BW) / Whole Body Lipid-Glycerol (g) / Whole Body Protein (% BW) / Whole Body Protein (g) / Final Body Weight: ob/ob mice, two weeks; for Final Body Weight: sacrificed 24-26 hours after last treatment; for reducing body weight gain: single drug 10 mg/kg, two weeks at 1 HALO
Procedure: Different groups of 6-week old C57BL/6 ob/ob mice (lacking a functional leptin protein) were treated with either bromocriptine (“BC”) (10 mg/kg BW), SKF38393 (“SKF”) (10 mg/kg BW), both drugs, or vehicle for two weeks at 1 hour after light onset (HALO). Animals were held on 12-hour daily photoperiods and allowed to feed ad libitum. Food consumption was monitored daily for 3 days before the initiation of treatment throughout the 14-day treatment period. Animals were sacrificed between 1 and 3 HALO on the day following the final treatment (i.e., 24-26 hours after last injection) and plasma was collected for the analyses of insulin, glucose, and lipids while the carcasses were solubilized in ethanolic KOH and analyzed for protein and lipid content. Bromocriptine and SKF38393, individually, were ineffective in reducing body weight gain where as SKF, but not BC, reduced food consumption (19%, P<0.01). However, the combined treatment of bromocriptine and SKF38393 (BC/SKF) decreased food consumption by 46% (from 4.8±0.2 to 2.6±g/day; P<0.001) and body weight by 15% (from a 3.2 g increase in controls to a 4.3 g decrease; P<0.005) in 14 days of treatment (FIG. 16). Relative to controls, in absolute terms, the lipid content of the BC/SKF treated animals was decreased by 40% (from 4.2±0.2 to 2.5±0.3 g glycerol/animal; P<0.0003) whereas the protein content increased 8% (from 3.7±0.08 to 4.0±0.08 g/animal; P<0.05). […] This effect on body composition was observed by SKF (P<0.003) or BC (P<0.04) treatments alone, although to a lesser extent than by BC/SKF combination (P<0.05).

[2] = test system: ob/ob mice; test: Example 1: two-week treatment of female ob/ob mice (40-70 g) at light onset; assay type: in vivo; details: single drug, two weeks at light onset
Procedure: Female ob/ob mice (40-70 g bw) were treated for two weeks with either 1) bromocriptine (11 mg/kg) at light onset, 2) SKF38393 (20 mg/kg) at light onset, 3) bromocriptine plus SKF38393 at light onset, or 4) vehicle at light onset.

[3] = timed bromocriptine monotherapy, diastolic blood pressure; assay type: in vivo; details: humans, 4.8 mg/day at 8:00 AM
Text: The benefits of the invention are not limited to modifying and regulating lipid and glucose metabolism. Other bodily functions, such as blood pressure, can be beneficially modified and regulated by timed administration of a D2 agonist (as monotherapy) in the dosage range disclosed above. […] Conjoined administration of a dopamine D1 agonist and […]

[4] = target: T1, HMG-CoA reductase (Homo sapiens, UniProt P04035); details: in vivo; cited from earlier work
T1 sequence (P04035 1-888): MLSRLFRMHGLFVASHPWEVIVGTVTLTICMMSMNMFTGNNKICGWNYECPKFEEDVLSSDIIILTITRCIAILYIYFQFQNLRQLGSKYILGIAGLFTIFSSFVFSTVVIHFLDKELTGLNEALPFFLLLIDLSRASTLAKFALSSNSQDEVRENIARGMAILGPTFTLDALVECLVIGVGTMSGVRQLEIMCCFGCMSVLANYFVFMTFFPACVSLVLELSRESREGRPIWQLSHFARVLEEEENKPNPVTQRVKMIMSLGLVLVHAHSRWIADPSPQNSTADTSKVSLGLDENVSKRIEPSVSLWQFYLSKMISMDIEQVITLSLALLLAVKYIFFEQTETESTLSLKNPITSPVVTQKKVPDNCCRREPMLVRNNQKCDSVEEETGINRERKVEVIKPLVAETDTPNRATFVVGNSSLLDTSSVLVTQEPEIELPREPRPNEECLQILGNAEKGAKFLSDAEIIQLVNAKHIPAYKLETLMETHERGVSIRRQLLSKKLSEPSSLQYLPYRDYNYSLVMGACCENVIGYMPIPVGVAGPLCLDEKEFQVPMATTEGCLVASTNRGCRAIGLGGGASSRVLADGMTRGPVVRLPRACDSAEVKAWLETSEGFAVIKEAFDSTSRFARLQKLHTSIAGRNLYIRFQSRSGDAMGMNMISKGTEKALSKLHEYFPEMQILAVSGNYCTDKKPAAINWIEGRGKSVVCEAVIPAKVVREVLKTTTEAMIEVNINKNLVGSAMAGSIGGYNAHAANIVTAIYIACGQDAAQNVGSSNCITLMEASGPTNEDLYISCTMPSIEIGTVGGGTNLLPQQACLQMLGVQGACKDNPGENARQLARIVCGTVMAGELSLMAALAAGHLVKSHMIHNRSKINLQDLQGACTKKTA

Row | SMILES | reduction of food consumption ([1]; BC 10 mg/kg, SKF 10 mg/kg, 14 days) [%] | reduction of plasma free fatty acid level [1] | reduction of plasma glucose concentration [1] [%] | reduction of plasma insulin level [1] | reduction of plasma triglyceride level [1] | Food Consumption [1] | Plasma FFA [1] | Plasma Glucose [1] | Plasma Insulin [1] | Plasma TG [1] | Whole Body Lipid-Glycerol (% BW) [1] | Whole Body Lipid-Glycerol (g) [1] | Whole Body Protein (% BW) [1] | Whole Body Protein (g) [1] | Final Body Weight [1] | reducing body weight gain [1] | reductions in hyperphagia, body weight gain, and obesity [2] | diastolic blood pressure [3] | increase in HDL concentrations [4]
1 | Oc1cc2c(cc1O)C(c1ccccc1)CNCC2 (centres unmarked) [SKF38393] | 19 | neither BC nor SKF individually, reduced | 43 | not affected | neither BC nor SKF individually, reduced | 3.9 ± 0.07^3,4,5 g/day | 671 ± 36^3 uM | 218 ± 22^2 mg/dl | 50 ± 13 ng/mL | 234 ± 22^1 mg/dl | 6.0 ± 0.2^1 % BW | 3.1 ± 0.1^1 g | 7.9 ± 0.1^1 % BW | 4.1 ± 0.04^2 g | 52 ± 0.7^2 g | ineffective | moderate reductions |  | 
2 | CC(C)C[C@H]1C(=O)N2CCC[C@H]2[C@]2(O)O[C@](NC(=O)[C@@H]3C=C4c5cccc6[nH]c(Br)c(c56)C[C@H]4N(C)C3)(C(C)C)C(=O)N12 [bromocriptine, 2-bromo-α-ergocriptine] |  | neither BC nor SKF individually, reduced | 31 | 50% | neither BC nor SKF individually, reduced | 4.5 ± 0.2^2,5 g/day | 818 ± 64^2 uM | 262 ± 25^1 mg/dl | 30 ± 4^2 ng/ml | 405 ± 101 mg/dL | 7.0 ± 0.2^1 % BW | 3.7 ± 0.1^1 g | 7.5 ± 0.1^1 % BW | 4.0 ± 0.1^1 g | 53 ± 0.7^2 g | ineffective | moderate reductions | decrease significantly | 
3 | CC[C@H](C)C(=O)O[C@H]1C[C@@H](C)C=C2C=C[C@H](C)[C@H](CC[C@@H]3C[C@@H](O)CC(=O)O3)[C@H]21 [lovastatin] |  |  |  |  |  |  |  |  |  |  |  |  |  |  |  |  |  |  | 5-10%
